Several values for one entry are separate records, joined by “and”; a condition that tells them apart may be missing. Equal values may be shown once.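 Method: 48-hour compound exposure of cells in 96-well plates, five concentrations, linear interpolation of endpoints. Here, GI50 denotes the concentration required for 50% inhibition of growth. TGI: total growth inhibition.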 Where a SMILES comes first, the peptide text is derived from it. The star is where a group is joined. Trt = c1ccc(C(c2ccccc2)(c2ccccc2)*)cc1; Cbz = O=C(OCc1ccccc1)*

The test relates to MDA-MB-468 breast. The test is described as follows: NCI tumour cell line growth inhibition, 48 h.
For `Nc1nc(N)c2c(n1)NC(c1sc(Cl)nc1Cl)CC(c1ccc3c(c1)OCO3)=N2` (stereo unspecified), the GI50 was 1.65 µM and the TGI amounted to 13.3 µM.

`NC(=O)c1ccc(N(C(N)=O)c2c(F)cccc2F)nc1-c1ccc(F)cc1F`: the GI50 was over 100 µM and the TGI is over 100 µM.

`CCOC(=O)c1c(NCC(=O)Nc2ccc(Br)cc2)sc2c1CCCC2`: the GI50 is 1.95 µM and the TGI was determined as 4.53 µM.

For `O=C(Nc1nc2ccccc2s1)c1cc(-c2ccc(F)cc2)n2nc(-c3ccccc3)cc2n1`, the GI50 was 5.18 µM and the TGI worked out at 36 µM.

Take `Cc1ccc(-c2n[nH]c(=O)c3noc(-c4ccc(C)cc4)c23)cc1`: the GI50 is 0.37 µM and the TGI amounted to 4.88 µM.

As for `Cc1cc(Nc2nc(-c3ccncc3)nc3ccccc23)n[nH]1`, the GI50 was 6.81 µM and the TGI was over 100 µM.

As for `C=C(C)[C@@H]1CC[C@]2(CO)CC[C@]3(C)[C@H](CC[C@@H]4[C@@]5(C)CC[C@H](NCO)C(C)(C)[C@@H]5CC[C@]43C)[C@@H]12`, the GI50 was 0.854 µM and the TGI is 1.71 µM.

Take `O=C(CCCCCCCCC(=O)N/N=C\c1cc(Cl)ccc1O)N/N=C\c1cc(Cl)ccc1O`: the GI50 was 1.44 µM and the TGI was determined as 7.36 µM.

Turning to `CN=C(N)N/N=C(\C)c1ccc2c(c1)Cc1ccccc1-2`, the GI50 is 1.79 µM and the TGI is 4.4 µM.

On to `Cc1cc2nc3c4ccc(Br)cc4n(CCN(C)C)c3nc2cc1C`, for which the GI50 was 1.21 µM and the TGI is 2.91 µM.

Turning to `Cn1cc(C2=C(c3cn(CCCCC(=N)N)c4ccccc34)C(=O)NC2=O)c2ccccc21`, the GI50 was 9.81 µM and the TGI is over 25 µM.

Consider `O=C(NOCCO)c1cc(CN2OCCCC2=O)c(F)c(F)c1Nc1ccc(I)cc1F`, for which the GI50 is 14.2 µM and > 10 µM; the TGI is 66.7 µM and > 10 µM.

With `O=C1/C(=C\c2ccccc2)C2OCC=C3CN4CCC56c7ccccc7N1C5C2C3CC46` (stereo unspecified), the GI50 is 3.31 µM and the TGI stood at 26.1 µM.

For `Cc1c(Cl)c(C)c(Cc2c(C)c(Cl)c(C)c(Cl)c2O)c(O)c1Cl`, the GI50 is 1.82 µM and the TGI amounted to 8.4 µM.

Regarding `COc1cc(OC)c(/C=C/S(=O)(=O)Cc2ccc(OC)c(NCC(=O)NO)c2)c(OC)c1`, the GI50 is 0.0293 µM and the TGI is over 100 µM.

With `C=CC(C)(O)CC/C=C(\CO)C(=O)OC1C(C)OC(O[C@](C)(C=C)CC/C=C(\CO)C(=O)O[C@H]2C[C@@]3(C(=O)OC4OC(CO)C(O)C(O)C4OC4OC(C)C(OC5OC(CO)C(O)C5O)C(OC5OC(CO)C(O)C(O)C5O)C4O)C(CC2(C)C)C2=CCC4[C@@]5(C)CC[C@H](OC6OC(COC7OC(C)C(O)C(O)C7OC7OCC(O)C(O)C7O)C(O)C(O)C6NC(C)=O)C(C)(C)C5CC[C@@]4(C)[C@]2(C)C[C@H]3O)C(O)C1O` (stereo partly specified), the GI50 is 0.189 µM and the TGI was found to be 0.848 µM.

As for `Cc1c(Cl)cccc1NC(=O)c1sc2nc3c(cc2c1N)CCCC3`, the GI50 is 0.394 µM and the TGI was over 100 µM.

In the case of `COc1ccc(-c2n/c(=C\c3c(O)[nH]c4ccccc34)cc3c2=Nc2ccccc2-3)cc1`, the GI50 was 0.368 µM and the TGI turned out to be 1.43 µM.

For the compound `CCN(CC)Cc1cc(Nc2c3ccccc3nc3cc(Cl)ccc23)ccc1O`, the GI50 was 1.5 µM and the TGI came out at 3.06 µM.

For `C/C(=N\NC(=O)CSc1nc2sc3c(c2c(=O)n1-c1ccccc1)CCC(C)C3)c1ccc(Cl)cc1` (stereo unspecified), the GI50 was 1.55 µM and the TGI is 5.92 µM.

Consider `CCCN1CCC=C(c2ccc(Nc3nc(Nc4ccccc4C(N)=O)c4cc[nH]c4n3)c(C)c2)C1`, for which the GI50 is over 14.6 µM and the TGI was over 25 µM.

As to `Nc1c(C(=O)Nc2cccc3ccccc23)sc2nc3c(cc12)C(=O)CCC3`, the GI50 was 0.195 µM and the TGI is over 45 µM.

In the case of `C=C(C)[C@@H]1CC[C@]2(C(=O)NC(C)=O)CC[C@]3(C)[C@H](CC[C@@H]4[C@@]5(C)CCCNC(C)(C)[C@@H]5CC[C@]43C)[C@@H]12`, the GI50 is 1.6 µM and the TGI was found to be 3.1 µM.

H-QIYKKYRTWYRKAWKVLGKV-NH2: the GI50 was 10.9 µM and the TGI turned out to be 41.9 µM.

For the compound `Cn1cc(-c2nc(N[C@@H]3CCCC[C@@H]3N)c(F)c3c2C(=O)NC3)cn1`, the GI50 was 13 µM and 16.9 µM; the TGI was 44.9 µM and 69.9 µM.

For the compound `O=C(Nc1cccc(C(F)(F)F)c1)c1cc2ccccc2cc1O`, the GI50 was 2.2 µM and the TGI was over 51.6 µM.

Turning to `COc1cc(Cn2c(-c3ccccc3)cc3c2-c2oncc2CC3)cc(OC)c1`, the GI50 is 0.211 µM and the TGI was found to be 0.745 µM.

Consider `COc1ccc(C2=Nc3c/c(=C\c4c(O)[nH]c5cc(Cl)ccc45)ccc3=N2)cc1`, for which the GI50 is 3.06 µM and the TGI was 10.4 µM.

As to `COC(=O)C(CSC(c1ccccc1)(c1ccccc1)c1ccccc1)NC(=O)C(CC(N)=O)NC(=O)OCc1ccccc1` (stereo not drawn) (Cbz-Asn-Cys(Trt)-OMe; configuration not given here), the GI50 is 3.13 µM and the TGI is 14.6 µM.

Regarding `COc1cc(/C=N/NC(=O)c2ccccc2Nc2cccc(C(F)(F)F)c2)cc(OC)c1OC`, the GI50 is 1.75 µM and the TGI was found to be 11.8 µM.

For the compound `COc1ccc(C(=O)c2cc3c(N)c(C(=O)Nc4cccc(OC)c4)sc3nc2C)cc1`, the GI50 is 0.396 µM.

For `CCCCCCCCCCSC(=N)N`, the GI50 is 1.66 µM and the TGI was found to be 3.2 µM.

Regarding `Oc1ccc(Cl)cc1/C=N\NC(=S)N/N=C/c1cc(Cl)ccc1O`, the GI50 was 1.76 µM and the TGI stood at 7.35 µM.

Consider `COc1cccc2c1cc1c3c(cc4c(c32)OCO4)C(=O)N1`, for which the GI50 was 2.04 µM and the TGI amounted to 6.22 µM.

On to `O=C(/C=C/c1cccc2ccccc12)Nc1ncc(Cc2ccccc2)s1`, for which the GI50 was 0.665 µM and the TGI was over 24.9 µM.

On to `O=C(C=C=Nc1ccccc1)C(=O)N=C=Cc1ccccc1`, for which the GI50 is 2.1 µM and the TGI is 4.93 µM.

The values above are taken from PubChem BioAssay (NCI).
